Here are results for five compounds from publication PMC9506420, “Biological Evaluation of 3-Azaspiro[Bicyclo[3.1.0]Hexane-2,5′-Pyrimidines] as Potential Antitumor Agents” (International Journal of Molecular Sciences, 2022).

Test [1] deals with Vero cells. Nature of the test: Actin cytoskeleton staining (rhodamine-phalloidin, confocal microscopy), Vero. The format is cell-based, African green monkey. The note with it: 5 μg/mL, 24 h. On the procedure:
(§1) Therefore, in the current study, the actin cytoskeleton structure of HeLa, CT26, and Vero cells was analyzed, after the impact of compounds 4a–i, by the presence of filopodia-like protrusions and the availability of stress fibers (Figure 14, Figure 15 and Figure 16). […] HeLa cells were more sensitive to the action of tested products, compared to CT26 and Vero cells.
(§2) Cells were seeded onto Petri dishes with cover slips at a density of 2 × 10^5 cells per dish and incubated for 24 h. After that, cells were treated with compounds 4d, 4e, 4f, 4h, and 4i (5 μg/mL) for 24 h. The medium was removed, and cells were fixed with 4% paraformaldehyde (Sigma-Aldrich, St. Louis, MO, USA), washed three times with PBS, and permeabilized with 0.3% Triton-X100 (Sigma-Aldrich, St. Louis, MO, USA). The cells were rinsed three times with PBS. Actin filaments (microfilaments) were stained at 37 °C for 15 min with rhodamine-phalloidin (Invitrogen, Carlsbad, CA, USA). The samples were rinsed three times with PBS, followed by embedding in Fluoroshield medium (Sigma-Aldrich, St. Louis, MO, USA). Cells were imaged using an Axio Observer Z1 confocal microscope (Carl Zeiss MicroImaging GmbH, Jena, Germany). In each experiment, at least 30 cells were imaged. Images were analyzed by a pathologist, blinded to the treatment mode used for each group, using ImageJ software.

The test system of test [2] is HeLa cells. Nature of the test: Scratch test of cell motility, HeLa. The class given is cell-based, human. The note with it: 10 μg/mL, 24 h, serum-free, nontreated 29.3 ± 2.0%. On the procedure:
To evaluate the ability of tested adducts to inhibit cell-motility-associated metastasis, a scratch test was performed on the HeLa, CT26, and Vero cell lines. The results are shown in Figure 11, Figure 12 and Figure 13. Nontreated HeLa cells filled the scratched strip at 29.3 ± 2.0%, while cells filled 10.4 ± 1.8%, 11.2 ± 1.1%, 20.2 ± 2.9%, 4.8 ± 1.9%, and 11.7 ± 1.8% of the scratched strip under treatment with adducts 4d, 4e, 4f, 4h, and 4i, respectively (Figure 11).
Cells were seeded onto Petri dishes at a density of 5 × 10^5 cells per dish and grown to confluency. Scratch wounds were made with a 200 μL pipette tip, after which detached cells were removed by washing with phosphate-buffered saline. In order to inhibit cell proliferation, culture media was replaced to serum-free DMEM. Compounds 4d, 4e, 4f, […] were added to the cultures at a dose of 10 μg/mL and incubated for 24 h. After that, the cells were stained with Hoechst 33,342 (Thermo Fisher Scientific, Waltham, MA, USA), by adding 2 μL of 1 mg/mL stock solution to 2 mL of medium and DIBAC4 (3) (Thermo Fisher Scientific, Waltham, MA, USA) at the same dose. Images were captured using confocal microscope (Axio Observer Z1, Carl Zeiss MicroImaging GmbH, Jena, Germany). The percentage of wound closure in five randomly chosen fields was calculated with NIH ImageJ software.

Test [3] relates to HeLa cells. Nature of the test: Actin cytoskeleton staining (rhodamine-phalloidin, confocal microscopy), HeLa. The class given is cell-based, human. As to conditions: 5 μg/mL, 24 h. As for the experimental part: as §1, §2
The test system of test [4] is CT26 cells. Nature of the test: Actin cytoskeleton staining (rhodamine-phalloidin, confocal microscopy), CT26. The class given is cell-based, mouse. As to conditions: CT26, 5 μg/mL, 24 h; for percentage of cells with normal stress fibers (C): control 64%. On the procedure:
as §1, §2

Turning to `CCC[C@@H]1NC2(C(=O)NC(=O)NC2=O)[C@]2(c3ccccc3)[C@@H](c3ccccc3)[C@]12c1ccccc1` [Compound 4d], in test [1], the “percentage of cells with disassembled stress fibers (D)” value (“percentage of cells … (D)” below) amounted to 6%, the “percentage of cells with filopodia-like deformations (A)” value (shortened to “percentage of cells … (A)”) was 45%, the “percentage of cells with normal stress fibers (C)” value (“percentage of cells … (C)” for short) is 94% and the “percentage of cells without filopodia-like deformations (B)” value is reported as 55%. Further, in test [2], the “scratched strip filled by cells” value worked out at 10.4 ± 1.8%.

In the case of `CCCC[C@@H]1NC2(C(=O)NC(=O)NC2=O)[C@]2(c3ccccc3)[C@@H](c3ccccc3)[C@]12c1ccccc1` [Compound 4e], in test [1], the “percentage of cells … (D)” value turned out to be 11%, the “percentage of cells … (A)” value is 44%, the “percentage of cells … (C)” value was determined as 89% and the “percentage of cells without filopodia-like deformations (B)” value stood at 56%. Besides, the “scratched strip filled by cells” value in test [2] is given as 11.2 ± 1.1%.

For the compound `CC(C)C[C@@H]1NC2(C(=O)NC(=O)NC2=O)[C@]2(c3ccccc3)[C@@H](c3ccccc3)[C@]12c1ccccc1` [Compound 4f], in test [1], the “percentage of cells … (D)” value was 4%, the “percentage of cells … (A)” value was 43%, the “percentage of cells … (C)” value came to 96% and the “percentage of cells without filopodia-like deformations (B)” value worked out at 57%. Further, in test [2], the “scratched strip filled by cells” value is on record as 20.2 ± 2.9%. Also, the “percentage of cells … (C)” value in test [3] (control 80%) was 10%. Also, the “percentage of cells … (A)” value in test [3] (control 91%) was determined as 35%.

For `CSCC[C@@H]1NC2(C(=O)NC(=O)NC2=O)[C@]2(c3ccccc3)[C@@H](c3ccccc3)[C@]12c1ccccc1` [Compound 4h], in test [1], the “percentage of cells … (D)” value worked out at 8%, the “percentage of cells … (A)” value stood at 46%, the “percentage of cells … (C)” value was determined as 92% and the “percentage of cells without filopodia-like deformations (B)” value was found to be 54%. The “percentage of cells … (C)” value in test [4] was determined as 36%. In test [2], the “scratched strip filled by cells” value was found to be 4.8 ± 1.9%.

As for `O=C1NC(=O)C2(N[C@@H](c3ccccc3)[C@@]3(c4ccccc4)[C@H](c4ccccc4)[C@@]23c2ccccc2)C(=O)N1` [Compound 4i], in test [1], the “percentage of cells … (D)” value was 2%, the “percentage of cells … (A)” value turned out to be 30%, the “percentage of cells … (C)” value is recorded as 98% and the “percentage of cells without filopodia-like deformations (B)” value was 70%. Also, in test [4] (control 43%), the “percentage of cells … (A)” value is reported as 38%. In addition, the “percentage of cells … (C)” value in test [4] is listed as 38%. Besides, the “scratched strip filled by cells” value in test [2] amounted to 11.7 ± 1.8%.
